Blank lines part the entries; values can stand above or below the molecule they belong to.
Legend:
[1] = target: T1, ceramide kinase (CERK) (Homo sapiens, UniProt Q8TCT0); assay: NBD-C6-ceramide to NBD-C1P conversion (HPLC, fluorescence) in MCF7 cells overexpressing CERK; assay type: cell-based
T1 sequence (Q8TCT0 1-537): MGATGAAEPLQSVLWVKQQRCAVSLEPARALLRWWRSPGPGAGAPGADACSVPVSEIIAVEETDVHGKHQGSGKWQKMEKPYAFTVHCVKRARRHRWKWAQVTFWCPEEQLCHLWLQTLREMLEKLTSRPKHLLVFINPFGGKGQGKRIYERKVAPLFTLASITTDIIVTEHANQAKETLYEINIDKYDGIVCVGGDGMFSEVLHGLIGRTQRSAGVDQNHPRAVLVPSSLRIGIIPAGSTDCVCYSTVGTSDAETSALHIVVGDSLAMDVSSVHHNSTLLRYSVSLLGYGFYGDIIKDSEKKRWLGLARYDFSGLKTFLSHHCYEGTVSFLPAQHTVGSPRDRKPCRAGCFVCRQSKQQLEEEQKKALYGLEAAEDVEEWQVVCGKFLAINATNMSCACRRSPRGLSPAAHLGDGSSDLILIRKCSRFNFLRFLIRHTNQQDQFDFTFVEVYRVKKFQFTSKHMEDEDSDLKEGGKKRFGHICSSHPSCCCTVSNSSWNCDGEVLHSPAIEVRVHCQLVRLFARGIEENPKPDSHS

[2] = target: T1, ceramide kinase (CERK); assay: in vitro activity assay with purified recombinant CERK, NBD-C6-Cer substrate; only about […] decrease at […]; assay type: biochemical; parameters: full-length human CERK; conditions: read-out: % decrease in activity at 50 μM and 100 μM
[3] = target: T2, glucosylceramide synthase (GCS) (Homo sapiens, UniProt Q16739); assay: NBD-C6-ceramide to NBD-HexCer conversion in MCF7 cells, […] eliglustat; assay type: cell-based
T2 construct: gene UGCG
T2 sequence (Q16739 1-394): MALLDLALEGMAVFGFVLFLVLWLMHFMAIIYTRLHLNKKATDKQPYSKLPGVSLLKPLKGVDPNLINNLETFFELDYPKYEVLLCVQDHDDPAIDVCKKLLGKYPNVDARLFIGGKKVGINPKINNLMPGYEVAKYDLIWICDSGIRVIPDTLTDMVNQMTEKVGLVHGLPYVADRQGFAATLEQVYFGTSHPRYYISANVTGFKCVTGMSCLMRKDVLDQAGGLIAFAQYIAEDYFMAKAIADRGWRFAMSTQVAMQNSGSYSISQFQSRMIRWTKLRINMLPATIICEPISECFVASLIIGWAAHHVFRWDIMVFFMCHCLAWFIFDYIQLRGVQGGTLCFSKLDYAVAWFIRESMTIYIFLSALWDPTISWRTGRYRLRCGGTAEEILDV

IC50 [1]: < 10 nM
Structure (SMILES): O=C(Nc1nc2ccc(NC(=O)C34CC5CC(CC(C5)C3)C4)cc2s1)c1ccccc1 [NVP-231]

inhibition at 50 µM [2]: 20%
Structure (SMILES): CCCCCCCCCC(=O)NC(CN1CCOCC1)C(O)c1ccccc1 (stereo not drawn) [PDMP, 1-phenyl-2-decanoylamino-3-morpholino-1-propanol]

Structure (SMILES): CCCCCCCC(=O)N[C@H](CN1CCCC1)[C@H](O)c1ccc2c(c1)OCCO2 [eliglustat]
NBD-C6-ceramide to NBD-HexCer conversion in MCF7 cells, 50 nM eliglustat [3]: Inhibition with eliglustat and PDMP both nearly eliminated the production of NBD-C6-HexCer

Source: article PMC11326893, “A comprehensive measure of Golgi sphingolipid flux using NBD C6-ceramide: evaluation of sphingolipid inhibitors” (Journal of Lipid Research, 2024)
